# Tested on: tissue between the subcutaneous fascia of the rat back
# Conditions: in vivo, sc
# Experimental: Six rats (Wistar/ST female) were anesthetized by intraperitoneal administration of pentobarbital and inhalation of isoflurane, and each of the solutions (physiological saline and a 2% aqueous solution of low-endotoxin sodium alginate AL2) was individually injected (implanted) in an amount of 1 ml into the tissue between the subcutaneous fascia at a subcutaneous depth of about 1 cm at each of eight sites from the upper back to the lower back, using 1-ml syringe and a 23 G needle. The injection of each solution was performed after randomization. Each needle entry site was sutured with one stitch of 5-0 proline thread.
# After 3 weeks, each rat was sacrificed by pentobarbital overdose, and the back implantation sites were cut out and immersion-fixed in a 10% formaldehyde solution. The fixed tissues were subjected to hematoxylin-eosin staining (HE staining) and safranin-O staining (SOFG staining) according to usual methods.
# After 12 weeks, HE staining and SOFG staining were performed in the same manner as in Example 1.
# Rats in which implantation was performed in the same manner as in Example 4 were subjected to MTC staining, and type I collagen staining in addition to HE staining and SOFG staining. […] MTC staining and type I collagen staining were performed according to usual methods. […]
substance,measurement,value
collagen,retention / residual implanted material at injection site,present in an amorphous state at the injection sites

# Source: patent US20240408129A1, “TISSUE FORMATION AGENT” (NATIONAL UNIVERSITY CORPORATION SHIGA UNIVERSITY OF MEDICAL …, priority 2021, published 2024)
